Where two headings read alike, the source gives them in different places.
Experiments:
Assay type in all cases: in vitro ADME
CYP2D6 = biological target: T1, CYP2D6 (Homo sapiens, UniProt P10635); experiment: CYP450 inhibition in human liver microsomes, CYP2D6; conditions: pH 7.4, read-out: % CYP inhibition @ 10 µM 2D6
T1 construct: tissue Corning or Xenotech; host or cells: human liver microsomes
Description: (§1) According to standard methods in the field for the study of cytochrome P450 enzyme systems, such as the method described in Kerns, Edward H. and Di Li et al., Drug-like Properties: Concepts, Structure Design and Methods: from ADME to Toxicity Optimization (2008), San Diego, Academic Press, and Lin, Tong et al., In Vitro Assessment of Cytochrome P450 Inhibition: Strategies for Increasing LC/MS-Based Assay Throughput Using a One-Point IC50 Method and Multiplexing High-Performance Liquid Chromatography (J. Pharm. Sci. 2007, 96 (9), 2485). The inhibitory effect of the disclosed compounds on the cytochrome P450 enzyme system was similarly examined below.
(§2) Human liver microsomes were purchased from Corning or Xenotech. The test compounds were evaluated by detecting the metabolism of substrates for different Cyp450 isoforms by human liver microsomes.
(§3) 0.1 M potassium phosphate buffer (K-buffer, pH 7.4) was pre-warmed.
(§4) 100 mM K-buffer was prepared by mixing 9.5 mL of stock solution A (1 M potassium dihydrogen phosphate, prepared by dissolving 136.5 g of potassium dihydrogen phosphate in 1 L of Milli-Q water) with 40.5 mL of stock solution B (1 M potassium hydrogen phosphate, prepared by dissolving 174.2 g of potassium hydrogen phosphate in 1 L of Milli-Q water). The total volume was adjusted to 500 mL with Milli-Q water, and the buffer was titrated to pH 7.4 using KOH or H3PO4.
(§5) Test compound solution and specific inhibitor solution (400× dilution) were prepared in a 96-well plate. For the test compound, 8 µL of 10 mM test compound was transferred into 12 µL of ACN. For specific inhibitors of CYP1A2, CYP2C9, and CYP2D6: 12 µL of 1 mM α-naphthoflavone, 10 µL of 40 mM sulfaphenazole, 10 µL of 10 mM quinidine, and 8 µL of DMSO were mixed. For specific inhibitors of CYP3A4, CYP2B6, CYP2C8, and CYP2C19: 8 µL of DMSO stock solution was added to 12 µL of ACN.
(§6) A 4× diluted NADPH solution was prepared by dissolving 66.7 mg of NADPH in 10 mL of 0.1 M K-buffer (pH 7.4). […]

CYP2C9 = biological target: T2, CYP2C9 (Homo sapiens, UniProt P11712); experiment: CYP450 inhibition in human liver microsomes, CYP2C9; conditions: pH 7.4, read-out: % CYP inhibition @ 10 µM 2C9
T2 construct: tissue Corning or Xenotech; host or cells: human liver microsomes
T2 sequence (P11712 whole entry): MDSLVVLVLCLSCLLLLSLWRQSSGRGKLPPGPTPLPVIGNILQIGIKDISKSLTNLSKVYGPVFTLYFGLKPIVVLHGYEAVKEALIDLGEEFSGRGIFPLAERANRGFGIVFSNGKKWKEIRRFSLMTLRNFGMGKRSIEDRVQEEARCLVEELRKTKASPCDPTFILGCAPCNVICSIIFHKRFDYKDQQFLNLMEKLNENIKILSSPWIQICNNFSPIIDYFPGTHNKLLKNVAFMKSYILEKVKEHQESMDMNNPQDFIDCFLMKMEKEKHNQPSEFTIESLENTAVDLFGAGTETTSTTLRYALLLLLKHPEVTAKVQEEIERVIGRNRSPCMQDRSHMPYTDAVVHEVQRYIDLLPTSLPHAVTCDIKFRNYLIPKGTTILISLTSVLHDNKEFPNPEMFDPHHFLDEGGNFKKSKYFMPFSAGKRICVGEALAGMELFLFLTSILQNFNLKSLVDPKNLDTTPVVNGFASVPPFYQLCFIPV
Description: as §1, §2, §3, §4, §5, §6

CYP2B6 = biological target: T3, CYP2B6 (Homo sapiens, UniProt P20813); experiment: CYP450 inhibition in human liver microsomes, CYP2B6; conditions: pH 7.4, read-out: % CYP inhibition @ 10 µM 2B6
T3 construct: tissue Corning or Xenotech; host or cells: human liver microsomes
T3 sequence (P20813 1-491): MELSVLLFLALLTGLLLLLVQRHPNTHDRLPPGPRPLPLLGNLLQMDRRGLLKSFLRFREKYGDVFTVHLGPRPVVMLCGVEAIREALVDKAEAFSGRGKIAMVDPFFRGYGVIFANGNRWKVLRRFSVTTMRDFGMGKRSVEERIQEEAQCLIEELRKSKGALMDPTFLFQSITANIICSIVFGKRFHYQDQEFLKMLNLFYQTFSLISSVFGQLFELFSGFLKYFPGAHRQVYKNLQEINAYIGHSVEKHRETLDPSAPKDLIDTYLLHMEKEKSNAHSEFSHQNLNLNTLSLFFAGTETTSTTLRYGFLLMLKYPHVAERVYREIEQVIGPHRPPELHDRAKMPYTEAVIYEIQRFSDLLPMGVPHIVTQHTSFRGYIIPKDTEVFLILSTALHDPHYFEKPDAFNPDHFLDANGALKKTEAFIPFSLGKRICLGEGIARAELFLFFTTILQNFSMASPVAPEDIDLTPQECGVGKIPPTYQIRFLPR
Description: as §1, §2, §3, §4, §5, §6

CYP3A4 = biological target: T4, CYP3A4 (Homo sapiens, UniProt P08684); experiment: CYP450 inhibition in human liver microsomes, CYP3A4 (midazolam and testosterone substrates)
T4 construct: tissue Corning or Xenotech; host or cells: human liver microsomes
T4 sequence (P08684 whole entry): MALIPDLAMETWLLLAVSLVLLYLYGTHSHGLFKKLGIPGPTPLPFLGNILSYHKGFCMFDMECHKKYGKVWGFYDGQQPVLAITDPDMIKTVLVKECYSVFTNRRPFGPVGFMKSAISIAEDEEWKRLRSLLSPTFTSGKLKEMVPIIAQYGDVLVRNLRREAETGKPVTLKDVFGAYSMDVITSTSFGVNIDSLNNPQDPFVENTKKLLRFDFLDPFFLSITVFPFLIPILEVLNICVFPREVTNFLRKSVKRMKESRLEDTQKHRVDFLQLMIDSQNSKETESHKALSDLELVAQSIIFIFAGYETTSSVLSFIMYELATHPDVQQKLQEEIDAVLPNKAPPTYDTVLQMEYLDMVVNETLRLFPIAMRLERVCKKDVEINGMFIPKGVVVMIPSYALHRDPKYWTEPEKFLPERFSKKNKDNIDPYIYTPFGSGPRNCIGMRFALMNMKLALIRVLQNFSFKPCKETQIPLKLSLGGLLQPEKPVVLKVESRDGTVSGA
Description: as §1, §2, §3, §4, §5
A 4× diluted NADPH solution was prepared by dissolving 66.7 mg of NADPH in 10 mL of 0.1 M K-buffer (pH 7.4). Human liver microsome (HLM) solutions were prepared in K-buffer, wherein 0.1 mg/mL for CYP1A2, CYP2C9, CYP2D6, CYP3A4, and CYP2B6, 0.5 mg/mL for CYP2C19, 0.2 mg/mL for CYP2C8. 4× diluted substrate dilution solutions (2 mL per isozyme) were prepared in K-buffer (HLM was added on ice if required) with the following concentrations: 120 µM for CYP1A2, 40 µM for CYP2C9, 140 µM with 1.6 mg/mL HLM for CYP2C19, 40 µM for CYP2D6, 320 µM and 20 µM for CYP3A4 (two concentrations), 280 µM for CYP2B6, 40 µM with 0.4 mg/mL HLM for CYP2C8.
A 0.2 mg/mL HLM solution was prepared on ice (by adding 10 µL of 20 mg/mL stock to 990 µL of 0.1 M K buffer). To the assay wells, 400 µL of the 0.2 mg/mL HLM solution was added, followed by 2 µL of the 400× diluted test compound solution, which was added on ice to the designated wells. To the assay wells, 200 µL of the 0.2 mg/mL HLM solution was added, followed by 1 µL of the specific inhibitor solution, which was added on ice to the designated wells. The following solutions were added in duplicate to the 96-well analysis plate kept on ice: 30 µL of the 2× diluted test compound solution and the specific inhibitor solution were added to the 0.2 mg/mL HLM solution, 15 µL of the 4× diluted substrate solution was added. The 96-well assay plate and the NADPH solution were pre-incubated at 37 °C for 5 min. The reaction was initiated by adding 15 µL of the pre-warmed 8 mM NADPH solution to the assay plate. Reactions were performed at 37 °C for the following durations according to the P450 isoform: 5 min for CYP3A4, 10 min for CYP1A2, CYP2B6, CYP2C8, CYP2C9, and CYP2D6, 45 min for CYP2C19. Reactions were terminated by adding 120 µL of ACN containing internal standards. The final internal standard concentrations were: 0.1 µM for CYP2C19, CYP1A2, CYP3A4 (midazolam), and CYP2D6, 200 ng/mL for CYP3A4 (testosterone), 0.31 µM for CYP2C9, 0.36 µM (100 ng/mL) for CYP2B6, 40 ng/mL for CYP2C8. […]

[1] = pH 7.4, probe midazolam, midazolam substrate, read-out: % CYP inhibition @ 10 µM 3A4 (midazolam)
[2] = pH 7.4, probe testosterone, testosterone substrate, read-out: % CYP inhibition @ 10 µM 3A4 (testosterone)

T1 sequence (P10635 whole entry): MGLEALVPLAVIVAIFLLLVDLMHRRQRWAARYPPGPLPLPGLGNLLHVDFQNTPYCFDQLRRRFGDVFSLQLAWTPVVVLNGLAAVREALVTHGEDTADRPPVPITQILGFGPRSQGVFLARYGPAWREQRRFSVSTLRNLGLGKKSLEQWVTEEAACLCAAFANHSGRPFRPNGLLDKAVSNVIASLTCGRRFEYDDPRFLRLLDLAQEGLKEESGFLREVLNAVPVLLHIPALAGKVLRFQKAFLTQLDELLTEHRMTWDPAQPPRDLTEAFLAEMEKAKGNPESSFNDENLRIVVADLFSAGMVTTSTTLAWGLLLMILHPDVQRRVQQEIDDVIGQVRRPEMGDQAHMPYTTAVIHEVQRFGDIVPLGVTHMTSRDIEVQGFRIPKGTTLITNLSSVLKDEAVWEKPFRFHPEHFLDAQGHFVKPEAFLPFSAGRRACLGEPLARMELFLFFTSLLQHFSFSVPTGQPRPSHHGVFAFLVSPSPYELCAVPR

| inhibition at 10 min, 10 µM (CYP2D6) | inhibition at 10 min, 10 µM (CYP2C9) | inhibition at 10 min, 10 µM (CYP2B6) | inhibition at 5 min, 10 µM (CYP3A4; [1]) | inhibition at 5 min, 10 µM (CYP3A4; [2]) | Structure (SMILES) |
| --- | --- | --- | --- | --- | --- |
| -5.43% | -3.32% | 1.32% | 5.28% | -22.6% | O=C(Nc1ccc(-c2cc3cc(F)c(-c4nnn[nH]4)cc3n2C2CCC2)cc1)C(=O)Nc1ccc(N2CCC(CO)CC2)cc1 [Example 23] |
| -12.6% | 7.84% | 15.3% | 13% | -0.87% | O=C(Nc1ccc(-c2cc3cc(F)c(-c4nnn[nH]4)cc3n2C2CCC2)cc1)C(=O)Nc1ccc(N2CCC3(CCOC3)CC2)cc1 [Example 67] |
| -4.07% | 6.51% | 7.06% | -10.2% | 2.46% | CC1(n2c(-c3ccc(NC(=O)C(=O)Nc4ccc(N5CCC6(CCOC6)CC5)cc4)cc3)cc3cc(F)c(-c4nnn[nH]4)cc32)CCC1 [Example 68] |

Reference: patent publication EP4741383A1, “COMPOUND AND USE THEREOF AS ANTI-CANCER DRUG” (Tyligand Bioscience (Shanghai) Limited, priority 2023, dated 2025)
